The results in this text go back to patent US8959984B2, “Proteome-wide quantification of small molecule binding to cellular target proteins” (priority 2007, dated 2015).

Like-named read-outs stand apart in the source and are kept apart here.

In assay [1] the target is T1, TLK1 (Homo sapiens, UniProt Q9UKI8).
T1 construct: endogenous in cells; host or cells: HeLa S3
T1 sequence (Q9UKI8 1-766): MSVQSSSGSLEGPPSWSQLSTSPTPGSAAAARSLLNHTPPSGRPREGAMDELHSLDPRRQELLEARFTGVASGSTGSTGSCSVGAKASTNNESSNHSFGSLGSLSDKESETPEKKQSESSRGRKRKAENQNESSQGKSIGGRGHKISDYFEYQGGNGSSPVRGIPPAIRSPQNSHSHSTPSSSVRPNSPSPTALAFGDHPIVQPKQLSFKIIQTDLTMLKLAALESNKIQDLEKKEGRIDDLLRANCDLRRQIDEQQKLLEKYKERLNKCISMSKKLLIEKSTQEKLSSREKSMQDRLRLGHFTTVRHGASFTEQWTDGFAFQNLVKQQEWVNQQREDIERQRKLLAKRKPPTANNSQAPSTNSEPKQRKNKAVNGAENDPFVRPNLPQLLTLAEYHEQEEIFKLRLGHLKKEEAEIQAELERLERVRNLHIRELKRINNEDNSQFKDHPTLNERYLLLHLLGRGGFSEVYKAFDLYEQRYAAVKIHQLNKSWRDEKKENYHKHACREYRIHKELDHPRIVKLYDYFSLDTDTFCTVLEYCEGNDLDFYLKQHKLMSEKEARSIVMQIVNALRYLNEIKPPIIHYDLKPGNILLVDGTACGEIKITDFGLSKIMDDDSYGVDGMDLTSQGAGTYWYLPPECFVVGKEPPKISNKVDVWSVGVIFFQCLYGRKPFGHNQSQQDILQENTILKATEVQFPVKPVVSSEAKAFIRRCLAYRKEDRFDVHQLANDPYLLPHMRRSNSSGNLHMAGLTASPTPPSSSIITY
Description: binding to immobilized V16742 (IVA1/IVA2, HeLa lysate, MS).

Assay [2] addresses T2, MAP3K6 (Homo sapiens, UniProt O95382).
T2 construct: endogenous in cells; host or cells: HeLa S3
T2 sequence (O95382 1-1288): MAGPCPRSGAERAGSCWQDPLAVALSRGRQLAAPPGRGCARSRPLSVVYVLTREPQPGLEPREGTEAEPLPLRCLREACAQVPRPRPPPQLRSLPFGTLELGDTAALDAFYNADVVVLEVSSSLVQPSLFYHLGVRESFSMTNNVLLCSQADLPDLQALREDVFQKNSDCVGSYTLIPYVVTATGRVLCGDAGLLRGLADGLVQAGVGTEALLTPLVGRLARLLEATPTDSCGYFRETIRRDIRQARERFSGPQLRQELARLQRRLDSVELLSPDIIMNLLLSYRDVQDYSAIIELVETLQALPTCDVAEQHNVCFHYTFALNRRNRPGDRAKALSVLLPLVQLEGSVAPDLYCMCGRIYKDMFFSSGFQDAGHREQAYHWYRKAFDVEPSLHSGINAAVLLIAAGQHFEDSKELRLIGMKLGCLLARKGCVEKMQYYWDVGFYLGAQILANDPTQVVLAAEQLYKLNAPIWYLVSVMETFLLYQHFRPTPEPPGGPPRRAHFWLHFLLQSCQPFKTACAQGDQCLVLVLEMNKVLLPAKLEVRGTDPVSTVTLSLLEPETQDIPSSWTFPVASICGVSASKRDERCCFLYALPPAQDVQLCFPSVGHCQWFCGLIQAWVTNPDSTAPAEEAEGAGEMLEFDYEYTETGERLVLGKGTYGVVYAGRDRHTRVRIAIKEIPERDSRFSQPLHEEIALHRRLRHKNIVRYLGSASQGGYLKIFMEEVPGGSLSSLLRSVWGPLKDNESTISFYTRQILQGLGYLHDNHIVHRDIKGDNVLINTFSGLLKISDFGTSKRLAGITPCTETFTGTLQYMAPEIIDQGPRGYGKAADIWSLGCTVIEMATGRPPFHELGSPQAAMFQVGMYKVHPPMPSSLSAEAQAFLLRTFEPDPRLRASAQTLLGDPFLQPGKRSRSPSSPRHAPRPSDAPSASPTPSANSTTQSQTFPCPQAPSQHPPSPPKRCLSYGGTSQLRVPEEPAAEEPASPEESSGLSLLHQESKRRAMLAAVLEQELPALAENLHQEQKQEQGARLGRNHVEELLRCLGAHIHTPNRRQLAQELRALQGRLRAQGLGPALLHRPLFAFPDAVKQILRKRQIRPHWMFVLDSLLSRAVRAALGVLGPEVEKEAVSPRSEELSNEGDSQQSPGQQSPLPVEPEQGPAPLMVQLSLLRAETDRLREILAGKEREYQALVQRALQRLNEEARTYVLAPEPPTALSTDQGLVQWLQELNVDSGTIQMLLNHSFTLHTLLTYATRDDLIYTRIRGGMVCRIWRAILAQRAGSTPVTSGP
The description is as above.

Assay [3] addresses CK1d (Homo sapiens, UniProt P48730). The description is as above.
For assay [4], the target named is T3, BLMH (Homo sapiens, UniProt Q13867).
T3 construct: endogenous in cells; host or cells: HeLa S3
T3 sequence (Q13867 1-455): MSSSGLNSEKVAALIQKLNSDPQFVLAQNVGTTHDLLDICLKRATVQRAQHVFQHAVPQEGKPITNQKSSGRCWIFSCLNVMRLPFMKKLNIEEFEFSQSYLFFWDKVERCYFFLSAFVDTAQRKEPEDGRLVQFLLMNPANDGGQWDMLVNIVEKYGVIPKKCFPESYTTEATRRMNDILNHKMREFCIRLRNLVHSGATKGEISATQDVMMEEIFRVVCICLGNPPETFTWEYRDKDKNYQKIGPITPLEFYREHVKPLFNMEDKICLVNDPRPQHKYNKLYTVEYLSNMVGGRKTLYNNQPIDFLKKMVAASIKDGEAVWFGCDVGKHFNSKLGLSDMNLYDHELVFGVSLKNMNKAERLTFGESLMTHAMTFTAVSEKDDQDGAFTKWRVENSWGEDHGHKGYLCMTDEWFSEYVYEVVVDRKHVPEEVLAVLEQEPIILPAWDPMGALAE
Description: gefitinib competition against AX14596 beads (HeLa lysate, SILAC MS). Format: binding.

[5] abbreviates: average of two experiments, read-out: Kd Avg.

Sequence of CK1d (P48730 whole entry): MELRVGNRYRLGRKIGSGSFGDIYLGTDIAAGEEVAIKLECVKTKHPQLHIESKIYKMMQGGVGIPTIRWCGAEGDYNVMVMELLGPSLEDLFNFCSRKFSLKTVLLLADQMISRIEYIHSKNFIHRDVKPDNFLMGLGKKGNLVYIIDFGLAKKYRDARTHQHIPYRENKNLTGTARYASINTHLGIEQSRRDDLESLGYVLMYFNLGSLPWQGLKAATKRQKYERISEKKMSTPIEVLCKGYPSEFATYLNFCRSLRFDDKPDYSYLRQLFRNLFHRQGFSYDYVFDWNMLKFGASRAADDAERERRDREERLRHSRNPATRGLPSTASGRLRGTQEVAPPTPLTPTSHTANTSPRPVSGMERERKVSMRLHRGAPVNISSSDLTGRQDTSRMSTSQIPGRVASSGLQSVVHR

On to `CC(C)n1c(=O)ccc2cnc(Nc3ccc(OCCN)cc3)nc21` [V16742], for which the “Percent bound at various 16742 conc” value stood at 1.34% in assay [1] (Experiment 1, 1.87 μM 16742); 2.39% in assay [1] (Experiment 1, 8.74 μM 16742); 49.12% in assay [1] (Experiment 1, 52 μM 16742); 0.76% in assay [1] (Experiment 2, 1.87 μM 16742); 1.97% in assay [1] (Experiment 2, 8.74 μM 16742); 31.56% in assay [1] (Experiment 2, 52 μM 16742). The “Percent bound at various 16742 conc” value in assay [2] (Experiment 1, 8.74 μM 16742) came to 3.57%; in assay [2] (Experiment 1, 52 μM 16742), 51.68%; in assay [2] (Experiment 2, 1.87 μM 16742), 2.67%; in assay [2] (Experiment 2, 8.74 μM 16742) it was 3.94%; in assay [2] (Experiment 2, 52 μM 16742), 13.37%. For the same molecule, the dissociation constant Kd – broadly, the concentration at which binding is half-saturated – in assay [1] (Experiment 1, read-out: Kd) amounted to 64 µM; in assay [1] (Experiment 2, read-out: Kd), 121 µM; in assay [1] (setting [5]) it was 92.4 µM; in assay [2] (Experiment 1, read-out: Kd), 57.7 µM; in assay [2] (Experiment 2, read-out: Kd), 326 µM; in assay [2] (setting [5]), 192 µM.
Regarding `CC(C)n1c(=O)ccc2cnc(Nc3ccc(OCCN)cc3)nc21` [compound 16742], the “Percent bound at 1.87 μM 16742 conc” value in assay [3] (EXPERIMENT 1) turned out to be 16.07%; in assay [3] (EXPERIMENT 2), 19.73%. The “Percent bound at 8.74 μM 16742 conc” value stood at 57.03% in assay [3] (EXPERIMENT 1) and 70.68% in assay [3] (EXPERIMENT 2). Further, the “Percent bound at 52 μM 16742 conc” value in assay [3] (EXPERIMENT 1) came out at 87.27%; in assay [3] (EXPERIMENT 2) it was 87.40%. For the same molecule, the Kd in assay [3] (EXPERIMENT 1, read-out: Kd) came to 7.38 µM; in assay [3] (EXPERIMENT 2, read-out: Kd), 5.07 µM; in assay [3] (read-out: Kd Avg), 6.23 µM.
Consider `COc1cc2ncnc(Nc3ccc(F)c(Cl)c3)c2cc1OCCCN1CCOCC1` [gefitinib], for which, in assay [4], the IC50 – broadly, the midpoint of a concentration-inhibition curve – was found to be 0.223 µM; the “rAVERAGE (10 nM/0 nM Gef.)” value came to 0.82; the “rAVERAGE (100 nM/0 nM Gef.)” value was 0.53; the “rAVERAGE (1000 nM/0 nM Gef.)” value came to 0.43. Further, in assay [4], the “rAVERAGE (10000 nM/0 nM Gef.)” value came out at 0.11. The inhibition constant (Ki) (as a rule, a dissociation constant, usually derived from enzyme kinetics or from competition with a known ligand) in assay [4] (read-out: Ki (Gef)) worked out at 0.0779 µM.
